For assay [1], the target named is Protein arginine N-methyltransferase 3 (Homo sapiens, UniProt O60678). The assay is described as follows: Inhibition of human PRMT3 using H4-21peptide as substrate at 10 uM incubated for 10 mins by fluorescence based analysis relative to control.
For assay [2], the target named is T1, Histone-arginine methyltransferase CARM1 (Homo sapiens) (UniProt Q86X55).
T1 sequence (whole entry): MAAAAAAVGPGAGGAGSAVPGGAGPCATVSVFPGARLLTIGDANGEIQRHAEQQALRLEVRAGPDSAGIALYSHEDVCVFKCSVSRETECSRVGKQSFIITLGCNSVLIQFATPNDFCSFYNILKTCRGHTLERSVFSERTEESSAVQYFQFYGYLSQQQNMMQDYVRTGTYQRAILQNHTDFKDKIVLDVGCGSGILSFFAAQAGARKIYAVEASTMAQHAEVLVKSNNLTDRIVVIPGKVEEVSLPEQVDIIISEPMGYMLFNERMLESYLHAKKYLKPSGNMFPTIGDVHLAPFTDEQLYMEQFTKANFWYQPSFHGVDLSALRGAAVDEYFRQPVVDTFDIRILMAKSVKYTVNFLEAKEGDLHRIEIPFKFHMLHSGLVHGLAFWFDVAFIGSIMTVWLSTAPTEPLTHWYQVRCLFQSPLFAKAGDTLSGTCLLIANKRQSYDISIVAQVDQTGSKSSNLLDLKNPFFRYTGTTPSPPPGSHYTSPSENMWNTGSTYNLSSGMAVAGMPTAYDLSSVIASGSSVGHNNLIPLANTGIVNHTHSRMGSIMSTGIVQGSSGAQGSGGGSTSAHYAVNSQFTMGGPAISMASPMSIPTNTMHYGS
The assay is described as follows: Inhibition of human PRMT4 using histone H3 as substrate and SAM as cofactor at 10 uM by radiometric HotSpot assay relative to control.

Assay [3] has as its target Protein arginine N-methyltransferase 6 (Homo sapiens, UniProt Q96LA8). The assay is described as follows: Inhibition of human PRMT6 using GST-GAR as substrate and SAM as cofactor at 10 uM by radiometric HotSpot assay relative to control.
Assay [4] concerns the target Protein arginine N-methyltransferase 8 (Homo sapiens, UniProt Q9NR22). The assay is described as follows: Inhibition of human PRMT8 using Histone H4 as substrate and SAM as cofactor at 10 uM by radiometric HotSpot assay relative to control.
Assay [5] concerns the target Protein arginine N-methyltransferase 1 (Homo sapiens, UniProt Q99873). The assay is described as follows: Inhibition of human PRMT1 using H4-21peptide as substrate at 10 uM incubated for 10 mins by fluorescence based analysis relative to control.

A word on the inhibition: it is the share of the control response that was lost under treatment.

Sequence of Protein arginine N-methyltransferase 6 (Q96LA8 whole entry, looked up): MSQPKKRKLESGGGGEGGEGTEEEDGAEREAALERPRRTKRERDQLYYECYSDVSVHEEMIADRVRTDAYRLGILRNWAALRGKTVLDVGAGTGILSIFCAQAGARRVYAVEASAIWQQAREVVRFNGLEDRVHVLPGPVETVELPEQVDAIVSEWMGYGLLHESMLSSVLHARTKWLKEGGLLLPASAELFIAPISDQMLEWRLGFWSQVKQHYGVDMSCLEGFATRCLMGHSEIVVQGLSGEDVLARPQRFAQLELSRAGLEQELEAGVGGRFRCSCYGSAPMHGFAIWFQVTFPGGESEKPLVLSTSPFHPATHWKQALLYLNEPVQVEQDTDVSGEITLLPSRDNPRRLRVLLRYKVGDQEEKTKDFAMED
Sequence of Protein arginine N-methyltransferase 3 (O60678 2-531 limits assumed): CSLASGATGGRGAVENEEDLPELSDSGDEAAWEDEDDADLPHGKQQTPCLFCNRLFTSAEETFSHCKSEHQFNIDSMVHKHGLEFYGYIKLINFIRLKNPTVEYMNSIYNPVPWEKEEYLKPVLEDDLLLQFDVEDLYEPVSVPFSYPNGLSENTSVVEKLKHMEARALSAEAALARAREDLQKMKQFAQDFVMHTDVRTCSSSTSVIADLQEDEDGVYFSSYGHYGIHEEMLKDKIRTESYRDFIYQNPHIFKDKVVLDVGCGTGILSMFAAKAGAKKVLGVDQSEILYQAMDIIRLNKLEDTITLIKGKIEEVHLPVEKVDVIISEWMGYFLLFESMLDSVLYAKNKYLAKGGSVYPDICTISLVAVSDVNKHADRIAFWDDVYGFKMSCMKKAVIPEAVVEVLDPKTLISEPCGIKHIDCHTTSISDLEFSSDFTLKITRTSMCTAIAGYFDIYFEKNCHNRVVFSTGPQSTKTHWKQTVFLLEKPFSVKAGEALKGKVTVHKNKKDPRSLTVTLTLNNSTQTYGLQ
Sequence of Protein arginine N-methyltransferase 1 (Q99873 whole entry, looked up): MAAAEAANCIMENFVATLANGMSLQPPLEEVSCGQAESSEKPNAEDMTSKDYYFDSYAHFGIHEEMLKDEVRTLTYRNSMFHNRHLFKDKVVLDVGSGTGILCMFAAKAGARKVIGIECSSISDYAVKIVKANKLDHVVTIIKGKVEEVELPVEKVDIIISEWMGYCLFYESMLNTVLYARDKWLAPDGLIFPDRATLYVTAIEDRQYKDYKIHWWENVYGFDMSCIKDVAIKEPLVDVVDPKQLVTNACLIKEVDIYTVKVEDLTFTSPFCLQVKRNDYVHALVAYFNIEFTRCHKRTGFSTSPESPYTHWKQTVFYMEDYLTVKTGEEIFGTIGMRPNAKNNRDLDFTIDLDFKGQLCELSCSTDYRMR
Sequence of Protein arginine N-methyltransferase 8 (Q9NR22 2-394 limits assumed): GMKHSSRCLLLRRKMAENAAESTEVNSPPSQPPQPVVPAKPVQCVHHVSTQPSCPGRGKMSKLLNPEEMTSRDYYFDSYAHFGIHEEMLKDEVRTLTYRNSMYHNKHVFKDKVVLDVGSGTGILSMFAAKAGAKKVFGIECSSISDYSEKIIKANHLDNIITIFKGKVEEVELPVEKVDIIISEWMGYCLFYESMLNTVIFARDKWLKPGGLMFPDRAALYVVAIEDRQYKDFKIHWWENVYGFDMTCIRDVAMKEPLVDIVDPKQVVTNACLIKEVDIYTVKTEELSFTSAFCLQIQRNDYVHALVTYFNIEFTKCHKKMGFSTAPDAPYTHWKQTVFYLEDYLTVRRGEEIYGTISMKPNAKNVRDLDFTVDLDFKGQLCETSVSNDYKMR

Regarding `Nc1ncnc2c1ncn2[C@@H]1O[C@H](CSCCCNCc2cccc(-c3ccc(Cl)cc3)c2)[C@@H](O)[C@H]1O`, the inhibition in assay [1] was less than 30%; in assay [2], greater than 90%; in assay [3] it was 50%; in assay [4], greater than 50%.
As for `Nc1ncnc2c1ncn2[C@@H]1O[C@H](CSCCNCc2cccc(-c3ccc(F)c(O)c3)c2)[C@@H](O)[C@H]1O`, the inhibition is less than 30% in assay [1], greater than 90% in assay [2], 50% in assay [3] and greater than 50% in assay [4].
With `Nc1ncnc2c1ncn2[C@@H]1O[C@H](CSCCNCc2cccc(-c3cccc(O)c3)c2)[C@@H](O)[C@H]1O`, the inhibition was less than 30% in assay [1], greater than 90% in assay [2], 50% in assay [3] and greater than 50% in assay [4].
In the same order, the values of `Nc1cccc(-c2cccc(CNCCSC[C@H]3O[C@@H](n4cnc5c(N)ncnc54)[C@H](O)[C@@H]3O)c2)c1` are less than 30%, greater than 90%, 50% and greater than 50%.
Consider `Nc1ncnc2c1ncn2[C@@H]1O[C@H](CSCCNCc2cccc(-c3cccc(F)c3)c2)[C@@H](O)[C@H]1O`, for which the inhibition is less than 30% in assay [1], greater than 90% in assay [2], 50% in assay [3] and greater than 50% in assay [4].
On to `N=C(NCCCSC[C@H]1O[C@@H](n2cnc3c(N)ncnc32)[C@H](O)[C@@H]1O)Nc1cccc(-c2ccc(F)nc2)c1`, for which the inhibition was greater than 50% in assay [5], greater than 90% in assay [2], greater than 90% in assay [3] and greater than 95% in assay [4].
As to `N=C(NCCSC[C@H]1O[C@@H](n2cnc3c(N)ncnc32)[C@H](O)[C@@H]1O)Nc1cccc(-c2ccc(Cl)cc2)c1`, the inhibition in assay [5] is greater than 50%; in assay [2] it was greater than 90%; in assay [3] it was greater than 90%; in assay [4] it was greater than 95%.
Consider `N=C(NCCSC[C@H]1O[C@@H](n2cnc3c(N)ncnc32)[C@H](O)[C@@H]1O)Nc1cccc(I)c1`, for which the inhibition in assay [5] is greater than 50%; in assay [2], greater than 90%; in assay [3], greater than 90%; in assay [4] it was greater than 95%.
For the compound `N=C(NCCCSC[C@H]1O[C@@H](n2cnc3c(N)ncnc32)[C@H](O)[C@@H]1O)Nc1cccc(-c2ccc3c(c2)OCCO3)c1`, the inhibition in assay [5] was greater than 50%; in assay [2] it was greater than 90%; in assay [3], greater than 90%; in assay [4] it was greater than 95%.
For `N=C(NCCCSC[C@H]1O[C@@H](n2cnc3c(N)ncnc32)[C@H](O)[C@@H]1O)Nc1cccc(-c2cccc([N+](=O)[O-])c2)c1`, the inhibition is greater than 50% in assay [5], greater than 90% in assay [2], greater than 90% in assay [3] and greater than 95% in assay [4].
Consider `N=C(NCCCSC[C@H]1O[C@@H](n2cnc3c(N)ncnc32)[C@H](O)[C@@H]1O)Nc1cccc(-c2ccc(C(F)(F)F)cc2)c1`, for which the inhibition was greater than 50% in assay [5], greater than 90% in assay [2], greater than 90% in assay [3] and greater than 95% in assay [4].
Regarding `N=C(NCCSC[C@H]1O[C@@H](n2cnc3c(N)ncnc32)[C@H](O)[C@@H]1O)NCc1ccccc1`, the inhibition in assay [5] was greater than 50%; in assay [2] it was greater than 90%; in assay [3] it was greater than 90%; in assay [4], greater than 95%.
Take `N=C(NCCCSC[C@H]1O[C@@H](n2cnc3c(N)ncnc32)[C@H](O)[C@@H]1O)Nc1cccc(-c2cccc(F)c2)c1`: the inhibition is greater than 50% in assay [5], greater than 90% in assay [2], greater than 90% in assay [3] and greater than 95% in assay [4].
As to `Nc1ncnc2c1ncn2[C@@H]1O[C@H](CSCCNCc2cccc(-c3ccc(C(F)(F)F)cc3)c2)[C@@H](O)[C@H]1O`, the inhibition was less than 30% in assay [1], greater than 90% in assay [2], 50% in assay [3] and greater than 50% in assay [4].
For `Nc1ncnc2c1ncn2[C@@H]1O[C@H](CSCCCNCc2cccc(-c3ccc(C(F)(F)F)cc3)c2)[C@@H](O)[C@H]1O`, in that order: less than 30%, greater than 90%, 50% and greater than 50%.
`N=C(NCCCSC[C@H]1O[C@@H](n2cnc3c(N)ncnc32)[C@H](O)[C@@H]1O)Nc1cccc(-c2ccc(F)c(O)c2)c1`: the inhibition in assay [5] is greater than 50%; in assay [2], greater than 90%; in assay [3], greater than 90%; in assay [4] it was greater than 95%.
For `N=C(NCCSC[C@H]1O[C@@H](n2cnc3c(N)ncnc32)[C@H](O)[C@@H]1O)Nc1cccc(-c2ccoc2)c1`, the inhibition in assay [5] was greater than 50%; in assay [2] it was greater than 90%; in assay [3], greater than 90%; in assay [4], greater than 95%.
As for `Nc1ncnc2c1ncn2[C@@H]1O[C@H](CSCCNCc2cccc(-c3ccc(O)cc3)c2)[C@@H](O)[C@H]1O`, the inhibition in assay [1] was less than 30%; in assay [2] it was greater than 90%; in assay [3], 50%; in assay [4], greater than 50%.
In the case of `Nc1ncnc2c1ncn2[C@@H]1O[C@H](CSCCCNCc2cccc(-c3ccc(F)c(O)c3)c2)[C@@H](O)[C@H]1O`, the inhibition in assay [1] is less than 30%; in assay [2] it was greater than 90%; in assay [3], 50%; in assay [4], greater than 50%.
Turning to `Nc1ncnc2c1ncn2[C@@H]1O[C@H](CSCCNCc2cccc(-c3ccncc3)c2)[C@@H](O)[C@H]1O`, the inhibition in assay [1] is less than 30%; in assay [2], greater than 90%; in assay [3] it was 50%; in assay [4] it was greater than 50%.
In the case of `Nc1ncnc2c1ncn2[C@@H]1O[C@H](CSCCNCc2cccc(-c3ccccc3O)c2)[C@@H](O)[C@H]1O`, the inhibition in assay [1] was less than 30%; in assay [2], greater than 90%; in assay [3], 50%; in assay [4], greater than 50%.
With `Nc1ncnc2c1ncn2[C@@H]1O[C@H](CSCCCNCc2cccc(-c3ccc(O)cc3)c2)[C@@H](O)[C@H]1O`, the inhibition in assay [1] was less than 30%; in assay [2] it was greater than 90%; in assay [3] it was 50%; in assay [4] it was greater than 50%.
Take `N=C(NCCCSC[C@H]1O[C@@H](n2cnc3c(N)ncnc32)[C@H](O)[C@@H]1O)Nc1cccc(-c2cccnc2)c1`: the inhibition was greater than 50% in assay [5], greater than 90% in assay [2], greater than 90% in assay [3] and greater than 95% in assay [4].
For `N=C(NCCCSC[C@H]1O[C@@H](n2cnc3c(N)ncnc32)[C@H](O)[C@@H]1O)Nc1cccc(-c2ccc(O)cc2)c1`, the inhibition was greater than 50% in assay [5], greater than 90% in assay [2], greater than 90% in assay [3] and greater than 95% in assay [4].
Consider `Nc1ncnc2c1ncn2[C@@H]1O[C@H](CSCCNCc2cccc(-c3ccc(Cl)cc3)c2)[C@@H](O)[C@H]1O`, for which the inhibition was less than 30% in assay [1], greater than 90% in assay [2], 50% in assay [3] and greater than 50% in assay [4].
`N=C(NCCCSC[C@H]1O[C@@H](n2cnc3c(N)ncnc32)[C@H](O)[C@@H]1O)Nc1ccccc1`: the inhibition in assay [5] is greater than 50%; in assay [2] it was greater than 90%; in assay [3] it was greater than 90%; in assay [4] it was greater than 95%.
Regarding `Nc1ncnc2c1ncn2[C@@H]1O[C@H](CSCCCNCc2cccc(-c3cccc4cn[nH]c34)c2)[C@@H](O)[C@H]1O`, the inhibition is less than 30% in assay [1], greater than 90% in assay [2], 50% in assay [3] and greater than 50% in assay [4].
With `N=C(NCCSC[C@H]1O[C@@H](n2cnc3c(N)ncnc32)[C@H](O)[C@@H]1O)Nc1cccc(-c2cccc(F)c2)c1`, the inhibition in assay [5] is greater than 50%; in assay [2] it was greater than 90%; in assay [3] it was greater than 90%; in assay [4] it was greater than 95%.
`N=C(NCCCSC[C@H]1O[C@@H](n2cnc3c(N)ncnc32)[C@H](O)[C@@H]1O)Nc1cccc(-c2ccoc2)c1`: the inhibition in assay [5] was greater than 50%; in assay [2] it was greater than 90%; in assay [3] it was greater than 90%; in assay [4], greater than 95%.
Take `N=C(NCCCSC[C@H]1O[C@@H](n2cnc3c(N)ncnc32)[C@H](O)[C@@H]1O)Nc1cccc(-c2n[nH]cc2C(F)(F)F)c1`: the inhibition in assay [5] is greater than 50%; in assay [2], greater than 90%; in assay [3], greater than 90%; in assay [4] it was greater than 95%.
As to `N=C(NCCCSC[C@H]1O[C@@H](n2cnc3c(N)ncnc32)[C@H](O)[C@@H]1O)Nc1cccc(-c2ccc(Cl)cc2)c1`, the inhibition in assay [5] was greater than 50%; in assay [2], greater than 90%; in assay [3], greater than 90%; in assay [4], greater than 95%.
